The values that follow come from US20040142819A1, “Compositions and methods for synergistic weed control” (priority 2003, published 2004).

The subject of assay [1] is Sorghum halepense (Johnsongrass). As to the kind of experiment: Greenhouse post-emergence weed control of seedling johnsongrass, visual % control, Colby expected response.
Procedure: In this evaluation, seedling johnsongrass was grown in 9-cm diameter styrofoam cups in a soil medium of a 1:1 mixture of top-soil from a Freestone fine sandy loam (fine-loamy, siliceous, thermic Aquic Paleudalf) and masonry sand. The temperature in the greenhouse was maintained at 31 ″5° C. for several weeks until the plants were approximately 5-inch (13 cm) leaf seedlings. Said plants were then sprayed with an aqueous solution of the test compounds at the rates indicated in Tables Ia and Ib as measured in lbs of herbicide per acre. Each treatment was replicated 4 times and the average control % (on a visual basis) is shown in Table Ia for 10 days after treatment and Table Ib for 20 days after treatment.
The methods described by Colby in “Calculating Synergistic and Antagonistic Responses of Herbicide Combinations,” 15 Weeds 20-22 (1967), were used to calculate interactions of herbicide tank mixtures. The expected response for tank mixtures was calculated by taking the product of the recorded values from the herbicides applied alone and dividing by 100.
Assay [2] deals with SORHAZ (johnsongrass, approximate height 3 feet). As to the kind of experiment: Field plot weed control, visual % control, rhizome johnsongrass. It is filed as in vivo. The method, then:
(§1) In this evaluation, seedling weeds of rhizome johnsongrass and white clover were grown in a field plot until they reached a height of 3 feet (0.9 m) and 3 inches (8 cm) respectively. The plants were then sprayed with an aqueous solution or emulsification of the test compounds at various rates as indicated in Table II. The control % (on a visual basis) is shown in Table II for 7 and 16 days after treatment.
(§2) Sethoxydim is formulated as a 1.5 lb ai/g (0.68 kg ai/g) emulsification.
(§3) Imazapyr is formulated as a 4.0 lb ai/g (1.8 kg ai/g) aqueous solution.
SORHAZ is johnsongrass with an approximate height of 3 feet (0.9 m).

In assay [3] the test system is TRFRE (white clover, approximate height 3 inches). As to the kind of experiment: Field plot weed control, visual % control, white clover. In kind it is in vivo. The method, then:
as §1, §2, §3
TRFRE is white clover with an approximate height of 3 inches (8 cm).

Where [4] appears, read: Treatment 2: graminicide 0.20 lb/A (0.22 kg/ha), imidazolinone 0.
The mark [5] stands for this setting: 10 Days After Treatment, Sethoxydim 0 lb/A, imidazolinone 0.008 lb/A (0.009 kg/ha).
[6] abbreviates: 10 Days After Treatment, Sethoxydim 0 lb/A, imidazolinone 0.016 lb/A (0.018 kg/ha).
Where [7] appears, read: 10 Days After Treatment, Sethoxydim 0 lb/A, imidazolinone 0.032 lb/A (0.036 kg/ha).
[8] abbreviates: 20 Days After Treatment, Sethoxydim 0 lb/A, imidazolinone 0.008 lb/A (0.009 kg/ha).
[9] abbreviates: 20 Days After Treatment, Sethoxydim 0 lb/A, imidazolinone 0.016 lb/A (0.018 kg/ha).
[10] abbreviates: 20 Days After Treatment, Sethoxydim 0 lb/A, imidazolinone 0.032 lb/A (0.036 kg/ha).
The mark [11] stands for this setting: Treatment 3: graminicide 0, imidazolinone 0.008 lb/A (0.009 kg/ha).

Take `CCCC(=NOCC)C1=C(O)CC(CC(C)SCC)CC1=O` (stereo not shown) [Sethoxydim, 2-[1-(ethoxyimino)butyl]-5-[2-(ethylthio)propyl]-3-hydroxy-2-cyclohexen-1-one]: the “Actual Control (%)” value was 20% in assay [1] (10 Days After Treatment, Sethoxydim 0.1 lb/A (0.1 kg/ha), no imidazolinone); 87.5% in assay [1] (10 Days After Treatment, Sethoxydim 0.2 lb/A (0.2 kg/ha), no imidazolinone); 30% in assay [1] (20 Days After Treatment, Sethoxydim 0.1 lb/A (0.1 kg/ha), no imidazolinone); 95% in assay [1] (20 Days After Treatment, Sethoxydim 0.2 lb/A (0.2 kg/ha), no imidazolinone). Besides, the “SORHAZ 7 DAT Control (%)” value in assay [2] (setting [4]) stood at 26.7%. Further, the “SORHAZ 16 DAT Control (%)” value in assay [2] (setting [4]) was determined as 38.3%. Also, the “TRFRE 7 DAT Control (%)” value in assay [3] (setting [4]) is given as 0%. Moreover, the “TRFRE 16 DAT Control (%)” value in assay [3] (setting [4]) is on record as 0%.

`COCc1cnc(C2=NC(C)(C(C)C)C(=O)N2)c(C(=O)O)c1` (stereo not shown) [imazamox, 2-[4,5-dihydro-4-methyl-4-(1-methylethyl)-5-oxo-1H-imidazol-2-yl]-5(methoxymethyl)-3-pyridinecarboxylic acid]: the “Actual Control (%)” value in assay [1] (10 Days After Treatment, Sethoxydim 0 lb/A, imidazolinone 0.004 lb/A (0.004 kg/ha)) is given as 12.5%; in assay [1] (setting [5]), 12.5%; in assay [1] (setting [6]) it was 10%; in assay [1] (setting [7]) it was 10%; in assay [1] (20 Days After Treatment, Sethoxydim 0 lb/A, imidazolinone 0.004 lb/A (0.004 kg/ha)) it was 30%; in assay [1] (setting [8]), 40%. Further, the “Actual Control (%)” value in assay [1] (setting [9]) was determined as 40%; in assay [1] (setting [10]), 50%.

With `CC(C)C1(C)N=C(c2ncccc2C(=O)O)NC1=O` (stereo not shown) [imazapyr, (″)-2-[4,5-dihydro-4-methyl-4-(1-methylethyl)-5-oxo-1H-imidazol-2-yl]-3-pyridinecar-boxylic acid], in assay [2] (setting [11]), the “SORHAZ 7 DAT Control (%)” value turned out to be 0% and the “SORHAZ 16 DAT Control (%)” value is reported as 0%. Moreover, in assay [3] (setting [11]), the “TRFRE 7 DAT Control (%)” value is 0% and the “TRFRE 16 DAT Control (%)” value is 0%.

On to `CC(C)C1(C)N=C(c2nc3ccccc3cc2C(=O)O)NC1=O` (stereo not shown) [imazaquin, 2-(4,5-dihydro-4-methyl-4-(1-methyl-ethyl)-5-oxo-1H-imidazol-2-yl]-3-quinolinecarboxylic acid], for which the “Actual Control (%)” value in assay [1] (setting [5]) is 0%; in assay [1] (setting [6]) it was 0%; in assay [1] (setting [7]) it was 0%; in assay [1] (10 Days After Treatment, Sethoxydim 0 lb/A, imidazolinone 0.063 lb/A (0.070 kg/ha)) it was 0%; in assay [1] (setting [8]), 0%; in assay [1] (setting [9]) it was 2.5%. The “Actual Control (%)” value in assay [1] (setting [10]) is 3.8%; in assay [1] (20 Days After Treatment, Sethoxydim 0 lb/A, imidazolinone 0.063 lb/A (0.070 kg/ha)), 5%.
